Source: patent US20080206866A1, “Reagency and Method for Preventing Time-Dependent Expression in Biological Cells” (ANDNAGEN AG, priority 2005, published 2008)

Tests used:
[1] = system: tumour-associated transcripts GA733-2, MUC-1 and Her-2; experiment: Detection of time-dependent induced transcription in treated blood samples of healthy donors (immunomagnetic cell selection, RT-PCR, Bioanalyser); type: cell-based, human; conditions: healthy donor
Excerpt: (§1) In all the examples which are represented subsequently, an analysis was implemented as described in EP 02 732 726. Antibodies were thereby coupled to magnetic particles for cell selection. The antibodies represented subsequently in Table 1 were thereby used as antibodies.
(§2) The magnetic particles were thereby used in a concentration of 4×10^8 beads/ml (CELLection™ Pan Mouse IgG Kit, company Dynal). The ratios between the antibody concentration and the antibodies coupled thereto are reproduced in Table 2.
The magnetic particles prepared in this way were mixed in equal parts and added to the blood (EDTA) in 100 μl PBS per 5 ml sample.
After 30 min incubation in an overhead agitator, the magnetic particles which were present possibly as cell-antibody magnetic particle complexes, were washed three times with PBS by means of a magnetic particle concentrator (MPC®-S, company Dynal) and the adhering cells were treated subsequently corresponding to the mRNA isolation protocol described subsequently. […]
(§3) The thus produced amplificates of the cDNA were separated electrophoretically by means of a bioanalyser 2100 (company Agilent). […] Peaks with a level of <4.0 are evaluated as negative. Peaks, the level of which is 4.0 to 6.7, can be evaluated neither as positive nor as negative. In this way FIGS. 1 to 6 were produced and evaluated.

tumour cell line Calu-3 = experiment: Detection of 2 inoculated Calu-3 tumour cells in treated blood samples; type: cell-based, human; conditions: 2 Calu-3 cells
Excerpt: as §1, §2
The magnetic particles prepared in this way were mixed in equal parts and added to the blood (EDTA) in 100 μl PBS per 5 ml sample. […]
as §3, with “evaluated. […]” for “evaluated.”
Tracks 1, 4 and 7 thereby show a ladder with size markers, tracks 2, 5 and 8 show the amplified DNA fragments of the tumour-associated transcripts to be detected in a healthy donor and of an internal control of β-actin. […]

[2] = 0.01% (w/v) DU, 0 h, 24 h and 48 h at 4° C.
[3] = 0.025%, 0.05% and 0.075% (w/v) bronopol, 24 h at 4° C.

Row | Compound | analysis result for illegitimate time-dependent induced expression, samples without inoculated cells [1, 2] | detection of tumour-associated transcripts of inoculated cells (tumour cell line Calu-3; [2]) | analysis result for illegitimate time-dependent induced expression [1, 3] | detection of tumour-associated transcripts of inoculated cells (tumour cell line Calu-3; [3])
1 | O=C(NCO)N(CO)C1(CO)C(=O)NC(=O)N1CO (stereo not shown) [DU, diazolidinyl urea] | negative | detected unequivocally |  | 
2 | O=[N+]([O-])C(Br)(CO)CO [bronopol, 2-bromo-2-nitropropane-1,3-diol] |  |  | negative | detected unequivocally
